According to patent US6964983B2, “Compounds that modulate PPAR activity and methods for their preparation” (Warner-Lambert Company, LLC, priority 2002, dated 2005):

What was measured:
hPPARα = target: T1, hPPARα (Homo sapiens, UniProt Q07869); assay: Transient transfection assay in HepG2 cells, Gal4-hPPARα chimeric receptor, luciferase reporter; type: cell-based; details: Hep G2-hAlpha EC50, 24 hours incubation; read-out: EC50α nM (Group)
T1 sequence (Q07869 200-468 limits assumed): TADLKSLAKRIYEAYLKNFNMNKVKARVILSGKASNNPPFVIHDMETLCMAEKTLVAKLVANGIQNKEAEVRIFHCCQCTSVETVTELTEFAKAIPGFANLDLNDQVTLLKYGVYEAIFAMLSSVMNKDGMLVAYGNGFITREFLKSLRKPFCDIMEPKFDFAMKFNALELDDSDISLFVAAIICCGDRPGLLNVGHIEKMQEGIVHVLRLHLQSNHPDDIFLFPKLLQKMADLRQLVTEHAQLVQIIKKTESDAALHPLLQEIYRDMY
Procedure: 1. Test A. Transient Transfections Assay using the HepG2 Hepatoma Cell Line.
HepG2 cells were transiently transfected with an expression plasmids encoding hPPARα, hPPARβ or mPPARγ chimeric receptors and a reporter containing the yeast upstream activating sequence (UAS) upstream of the viral E1B promoter controlling a luciferase reporter gene. In addition, the plasmid pRSVβ-gal was used to control for transfection efficiency. HepG2 cells were grown in DMEM supplemented with 10% FBS and 1 μM non-essential amino acid. On the first day, cells were split into 100 mm dishes at 2.5×10^6/dish and incubated overnight at 37° C./5% CO2. On the second day the cells were transiently transfected with plasmid DNA encoding a chimeric receptor, the luciferase reporter gene; and β-gal. For each 100 mm dish, 15 μg of lucifease reporter (PG5E1b) DNA, 15 μg of Gal4-PPAR chimeric receptor DNA, and 1.5 μg of β-gal plasmid DNA were mixed with 1.4 ml of opti-MEM in the tube. 28 μl of LipoFectamine-2000 reagent was added to 1.4 ml of opti-MEM in the tube, and incubate for 5 min at RT. The diluted Lipofectamine-2000 reagent was combined with the DNA mixture, and incubate for 20 min at RT. After fresh medium was added to each 100 mm dish of cells, 2.8 ml of Lipofectamine2000-DNA mixture was added dropwise to the 100 mm dish containing 14 ml of medium, and incubate 37° C. overnight. On day three cells were trypsinized off the 100 mm dishes and re-plated on 96 well plates. Cells were plated at 2.5×10^4 cells per well in 150 μl of media and 50 μl of compound diluted by media was added. The test compound added were in the range from 50 μM to 50 pM. After addition of compounds, the plates were incubated at 37° C. for 24 hours. Subsequently cells were washed with once with 100 μl of PBS, lysed, and processed for measuring luciferase and β-gal activity using Dual-Light luciferase kit from Tropix ®, according to the manufacturer's recommendations, on an EG&G Bethold MicroLumat LB96P luminometer. EC50 values were obtained using the GraphPad Prism™ program.

hPPARβ = target: T2, hPPARβ (Homo sapiens, UniProt Q03181); assay: Transient transfection assay in HepG2 cells, Gal4-hPPARβ chimeric receptor, luciferase reporter; type: cell-based; details: Hep G2-hBeta EC50, 24 hours incubation; read-out: EC50β nM (Group)
T2 sequence (Q03181 171-441 limits assumed): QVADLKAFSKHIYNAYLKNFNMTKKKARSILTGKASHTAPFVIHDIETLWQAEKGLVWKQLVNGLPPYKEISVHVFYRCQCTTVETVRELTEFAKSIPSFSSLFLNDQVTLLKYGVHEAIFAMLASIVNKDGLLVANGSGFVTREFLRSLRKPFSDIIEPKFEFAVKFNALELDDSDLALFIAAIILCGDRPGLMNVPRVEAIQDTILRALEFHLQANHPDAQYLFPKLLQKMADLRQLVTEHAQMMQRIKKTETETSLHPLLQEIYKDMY
Procedure, shortened: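 HepG2 cells were transiently co-transfected with Gal4-hPPARα or Gal4-hPPARβ chimeras, a UAS-E1B luciferase reporter and a β-gal normalisation plasmid. After re-plating, cells were treated with compound at 50 pM–50 μM for 24 h at 37°C. EC50 values were derived from luciferase read-out normalised to β-gal.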

Compound COc1cc(OCC(=O)O)c(C)cc1SCc1ccc(-c2ccccc2)cc1 [Example 1, [4-(Biphenyl-4-ylmethylsulfanyl)-5-methoxy-2-methyl-phenoxy]-acetic acid] has a melting point of 60 to 62 °C, an EC50 (hPPARα) of less than 300 nM and an EC50 (hPPARβ) of less than 300 nM.

Compound COc1cc(OCC(=O)O)c(C)cc1SCc1ccc(-c2cccc(C(F)(F)F)c2)cc1 [Example 9, [5-Methoxy-2-methyl-4-(3′-trifluoromethyl-biphenyl-4-ylmethylsulfanyl)-phenoxy]-acetic acid] has a melting point of 138 to 139 °C, an EC50 (hPPARα) of less than 300 nM and an EC50 (hPPARβ) of less than 300 nM.

With COc1cc(OCC(=O)O)c(C)cc1SCc1ccc(OCc2ccc(C(F)(F)F)cc2)cc1 [Example 14, {5-Methoxy-2-methyl-4-[4-(4-trifluoromethyl-benzyloxy)-benzylsulfanyl]-phenoxy}-acetic acid] the melting point was 145 °C and the EC50 (hPPARα) was less than 300 nM.

For COc1cc(OCC(=O)O)c(C)cc1SCc1cccc(-c2cccc(OC(F)(F)F)c2)c1 [Example 16, [5-Methoxy-2-methyl-4-(3′-trifluoromethoxy-biphenyl-3-ylmethylsulfanyl)-phenoxy]-acetic acid], the melting point was 92 to 94 °C, the EC50 (hPPARα) was less than 300 nM and the EC50 (hPPARβ) was less than 300 nM.

With COc1cc(OCC(=O)O)c(C)cc1SCc1ccc(-c2ccc(C(F)(F)F)cn2)cc1 [Example 18, {5-Methoxy-2-methyl-4-[4-(5-trifluoromethyl-pyridin-2-yl)-benzylsulfanyl]-phenoxy}-acetic acid] the melting point was 225 °C (dec.), the EC50 (hPPARα) was greater than 5000 nM and the EC50 (hPPARβ) was less than 300 nM.

For COc1cc(OCC(=O)O)c(C)cc1SCc1ccc(-c2ccc(C(F)(F)F)cc2)nc1 [Example 19, {5-Methoxy-2-methyl-4-[6-(4-trifluoromethyl-phenyl)-pyridin-3-ylmethylsulfanyl]-phenoxy}-acetic acid], the melting point was 203 °C (dec.), the EC50 (hPPARα) was less than 300 nM and the EC50 (hPPARβ) was less than 300 nM.

Cc1cc(SCc2ccc(-c3ccc(C(F)(F)F)cc3)cc2)c(Cl)cc1OCC(=O)O [Example 20, [5-Chloro-2-methyl-4-(4′-trifluoromethyl-biphenyl-4-ylmethylsulfanyl)-phenoxy]-acetic acid] showed a melting point of 161 to 162 °C, an EC50 (hPPARα) of 2000 to 5000 nM and an EC50 (hPPARβ) of less than 300 nM.

For Cc1cc(SCCc2ccc(-c3ccc(C(F)(F)F)cc3)cc2)ccc1OCC(=O)O [Example 22, {2-Methyl-4-[2-(4′-trifluoromethyl-biphenyl-4-yl)-ethylsulfanyl]-phenoxy}-acetic acid], the melting point was 132 to 134 °C, the EC50 (hPPARα) was 500 to 1000 nM and the EC50 (hPPARβ) was 1000 to 2000 nM.

COc1cc(OCC(=O)O)c(C)cc1SCCc1ccc(-c2ccc(C(F)(F)F)cc2)cc1 [Example 23, {5-Methoxy-2-methyl-4-[2-(4′-trifluoromethyl-biphenyl-4-yl)-ethylsulfanyl]-phenoxy}-acetic acid] gave a melting point of 169 to 171 °C, an EC50 (hPPARα) of less than 300 nM and an EC50 (hPPARβ) of less than 300 nM.

For Cc1cc(CCc2ccc(-c3ccc(C(F)(F)F)cc3)cc2)ccc1OCC(=O)O [Example 25, {2-Methyl-4-[2-(4′-trifluoromethyl-biphenyl-4-yl)-ethyl]-phenoxy}-acetic acid], the melting point was 174 to 176 °C, the EC50 (hPPARα) was 1000 to 2000 nM and the EC50 (hPPARβ) was 2000 to 5000 nM.

With Cc1cc(SCc2ccc(-c3ccc(C(F)(F)F)cn3)cc2)c2c(c1OCC(=O)O)CCC2 [Example 27, {5-Methyl-7-[4-(5-trifluoromethyl-pyridin-2-yl)-benzylsulfanyl]-indan-4-yloxy}-acetic acid] the melting point was 186 °C, the EC50 (hPPARα) was 500 to 1000 nM and the EC50 (hPPARβ) was 2000 to 5000 nM.

With Cc1cc(SCc2ccc(-c3ccc(C(F)(F)F)cc3)cc2)c2c(c1OCC(=O)O)CCC2 [Example 28, [5-Methyl-7-(4′-trifluoromethyl-biphenyl-4-ylmethylsulfanyl)-indan-4-yloxy]-acetic acid] the melting point was 177 °C, the EC50 (hPPARα) was 1000 to 2000 nM and the EC50 (hPPARβ) was 1000 to 2000 nM.

In the case of COc1cc(OCC(=O)O)c(C)cc1SCc1ccc(/C=C/c2cccc(F)c2)cc1 [Example 29, (4-{4-[2-(3-Fluoro-phenyl)-vinyl]-benzylsulfanyl}-5-methoxy-2-methyl-phenoxy)-acetic acid], the melting point is reported as 154 °C (dec.), the EC50 (hPPARα) is reported as less than 300 nM and the EC50 (hPPARβ) is reported as less than 300 nM.

Cc1cc(SCc2ccc(OCc3ccc(F)cc3F)cc2)ccc1OCC(=O)O [Example 31, {4-[4-(2,4-Difluoro-benzyloxy)-benzylsulfanyl]-2-methyl-phenoxy}-acetic acid] gave a melting point of 139 to 141 °C, an EC50 (hPPARα) of 1000 to 2000 nM and an EC50 (hPPARβ) greater than 5000 nM.

Work on Cc1cc(SCc2ccc(OCc3ccc(Cl)cc3Cl)cc2)ccc1OCC(=O)O [Example 32, {4-[4-(2,4-Dichloro-benzyloxy)-benzylsulfanyl]-2-methyl-phenoxy}-acetic acid] yielded a melting point of 143 to 145 °C, an EC50 (hPPARα) of 1000 to 2000 nM and an EC50 (hPPARβ) of 300 to 500 nM.

COc1ccc(COc2ccc(CSc3ccc(OCC(=O)O)c(C)c3)cc2)cc1 [Example 33, {4-[4-(4-Methoxy-benzyloxy)-benzylsulfanyl]-2-methyl-phenoxy}-acetic acid] showed a melting point of 150 to 152 °C, an EC50 (hPPARα) of 1000 to 2000 nM and an EC50 (hPPARβ) of 1000 to 2000 nM.

Work on Cc1cc(SCc2ccc(OCc3ccc(C(C)(C)C)cc3)cc2)ccc1OCC(=O)O [Example 34, {4-[4-(4-tert-Butyl-benzyloxy)-benzylsulfanyl]-2-methyl-phenoxy}-acetic acid] yielded a melting point of 135 to 137 °C, an EC50 (hPPARα) of less than 300 nM and an EC50 (hPPARβ) of less than 300 nM.

Cc1cc(SCc2ccc(OCc3ccc(OC(F)(F)F)cc3)cc2)ccc1OCC(=O)O [Example 35, {2-Methyl-4-[4-(4-trifluoromethoxy-benzyloxy)-benzylsulfanyl]-phenoxy}-acetic acid] showed a melting point of 141 to 142 °C, an EC50 (hPPARα) of less than 300 nM and an EC50 (hPPARβ) of 300 to 500 nM.

Work on O=C(O)COc1ccc(SCc2cccc(-c3ccc(C(F)(F)F)cc3)c2)c2c1CCC2 [Example 48, [7-(4′-Trifluoromethyl-biphenyl-3-ylmethylsulfanyl)-indan-4-yloxy]-acetic acid] yielded an EC50 (hPPARα) of 2000 to 5000 nM and an EC50 (hPPARβ) of less than 300 nM.

COc1cc(OCC(=O)O)c(C)cc1SCc1cccc(-c2ccc(C(F)(F)F)cc2)c1 [Example 49, [5-Methoxy-2-methyl-4-(4′-trifluoromethyl-biphenyl-3-ylmethylsulfanyl)-phenoxy]-acetic acid] showed an EC50 (hPPARα) of 300 to 500 nM and an EC50 (hPPARβ) of less than 300 nM.

With CCCc1cc(SCc2ccc(-c3ccc(C(F)(F)F)cc3)cc2)ccc1OCC(=O)O [Example 52, [2-Propyl-4-(4′-trifluoromethyl-biphenyl-4-ylmethylsulfanyl)-phenoxy]-acetic acid] the EC50 (hPPARα) was 500 to 1000 nM and the EC50 (hPPARβ) was less than 300 nM.

Compound O=C(O)COc1ccc(SCc2cccc(-c3ccc(C(F)(F)F)cn3)c2)c2c1CCC2 [Example 53, {7-[3-(5-Trifluoromethyl-pyridin-2-yl)-benzylsulfanyl]-indan-4-yloxy}-acetic acid] has an EC50 (hPPARα) of 1000 to 2000 nM and an EC50 (hPPARβ) of less than 300 nM.

Work on O=C(O)COc1ccc(SCc2ccc(OCc3ccc(C(F)(F)F)cc3)cc2)c2c1CCC2 [Example 63, {7-[4-(4-Trifluoromethyl-benzyloxy)-benzylsulfanyl]-indan-4-yloxy}-acetic acid] yielded a melting point of 145 °C and an EC50 (hPPARα) of 2000 to 5000 nM.

O=C(O)COc1ccc(SCc2cccc(OCc3ccc(C(F)(F)F)cc3)c2)c2c1CCCO2 [Example 84, {8-[3-(4-Trifluoromethyl-benzyloxy)-benzylsulfanyl]-chroman-5-yloxy}-acetic acid] gave a melting point of 113 to 115 °C and an EC50 (hPPARα) greater than 5000 nM.
